In assay [1] the target is Leukotriene B4 receptor (Homo sapiens) (UniProt Q9NPC1+Q15722). Nature of the assay: Inhibition of leukotriene B4 at 1 nM. Format: protein assay.
In assay [2] the target is Platelet-activating factor receptor (Homo sapiens) (UniProt P25105). Kind of assay: Inhibition of PAF at 1 nM.
The nature of assay [3]: Inhibitory activity at TBOB site in GABA gated chloride channel at 100 nM.
Assay [4] concerns the target GABA-A receptor; agonist GABA site (Homo sapiens) (UniProt P14867+P47870+P28472+P48169+P34903+P18505+P47869+P31644+Q16445). Nature of the assay: Inhibition of agonist site of GABAA receptor at 1 nM. Format: functional.
In assay [5] the target is Adrenergic receptor beta (Homo sapiens) (UniProt P08588+P07550+P13945). Kind of assay: Inhibition of non selective binding to adrenergic beta receptor at 100 nM. The format is protein assay.
Assay [6] can be described thus: Inhibition of P2Y purinergic receptor at 1 nM.
The target in assay [7] is Glutamate receptor ionotropic AMPA (Homo sapiens) (UniProt P48058+P42263+P42262+P42261). Nature of the assay: Inhibition of AMPA receptor at 1 nM. The format is protein-complex assay.
For assay [8], the target named is T1, 5-hydroxytryptamine receptor 2C (Rattus norvegicus) (UniProt P08909).
T1 sequence (whole entry): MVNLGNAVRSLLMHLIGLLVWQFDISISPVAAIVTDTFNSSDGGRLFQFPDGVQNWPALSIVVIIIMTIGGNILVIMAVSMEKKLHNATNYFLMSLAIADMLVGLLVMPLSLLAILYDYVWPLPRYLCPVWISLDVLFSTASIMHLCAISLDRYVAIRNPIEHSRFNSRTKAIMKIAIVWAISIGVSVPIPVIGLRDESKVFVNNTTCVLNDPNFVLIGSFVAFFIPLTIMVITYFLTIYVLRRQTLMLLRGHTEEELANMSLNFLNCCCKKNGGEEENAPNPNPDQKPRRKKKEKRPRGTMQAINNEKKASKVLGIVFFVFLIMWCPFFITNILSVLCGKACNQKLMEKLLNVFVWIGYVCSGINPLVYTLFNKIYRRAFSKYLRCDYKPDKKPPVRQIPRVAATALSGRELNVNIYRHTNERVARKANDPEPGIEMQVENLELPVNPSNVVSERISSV
Kind of assay: Activity against recombinant rat 5HT2C mediated intracellular calcium mobilization by FLIPR in SR3T3 cells. For orientation: Calcium flux is commonly read through the fluorescence of an indicator in the cells.

Assay [9] addresses 5-hydroxytryptamine receptor 2A (Rattus norvegicus, UniProt P14842). Kind of assay: (§1) Activity against 5HT2A mediated intracellular calcium mobilization by FLIPR in rat vascular smooth muscle cells. The format is functional, cell-based.
In assay [10] the target is 5-hydroxytryptamine receptor 2A (Rattus norvegicus) (UniProt P14842). The description is as §1. Format: functional, cell-based.
Chain of 5-hydroxytryptamine receptor 2A (Rattus norvegicus) (P14842 whole entry): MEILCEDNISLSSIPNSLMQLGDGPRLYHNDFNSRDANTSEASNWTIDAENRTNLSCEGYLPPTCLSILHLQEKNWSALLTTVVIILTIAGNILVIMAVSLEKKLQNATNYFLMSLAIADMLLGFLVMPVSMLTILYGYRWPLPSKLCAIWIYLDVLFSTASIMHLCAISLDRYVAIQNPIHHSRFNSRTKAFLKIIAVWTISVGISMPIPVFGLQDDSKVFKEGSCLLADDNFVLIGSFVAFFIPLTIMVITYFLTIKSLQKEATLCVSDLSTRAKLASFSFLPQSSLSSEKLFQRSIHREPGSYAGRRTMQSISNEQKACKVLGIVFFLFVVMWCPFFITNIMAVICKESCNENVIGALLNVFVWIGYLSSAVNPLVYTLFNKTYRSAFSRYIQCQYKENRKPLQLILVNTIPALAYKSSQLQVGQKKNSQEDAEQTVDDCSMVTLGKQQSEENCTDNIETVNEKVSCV
Assay [11] concerns the target Glutamate [NMDA] receptor (Homo sapiens) (UniProt Q05586+Q12879+Q13224+O15399+O60391+Q14957+Q8TCU5). Kind of assay: Inhibition of agonist site of NMDA receptor at 1 nM. The format is functional.
The target of assay [12] is T2, Dopamine receptor (Homo sapiens) (UniProt P14416+P35462+P21918+P21917+P21728). Kind of assay: Inhibition of non selective binding to dopamine receptor at 1 nM. Format: protein assay.
Assay [13] has as its target T2, Dopamine receptor (Homo sapiens). Nature of the assay: Inhibition of non selective binding to dopamine receptor at 100 nM. The format is protein assay.
The nature of assay [14]: Inhibition of alpha-bungarotoxin insensitive nicotinic receptor at 1 nM.
For assay [15], the target named is T3, Type-1 angiotensin II receptor (Homo sapiens) (UniProt P30556).
T3 sequence (whole entry): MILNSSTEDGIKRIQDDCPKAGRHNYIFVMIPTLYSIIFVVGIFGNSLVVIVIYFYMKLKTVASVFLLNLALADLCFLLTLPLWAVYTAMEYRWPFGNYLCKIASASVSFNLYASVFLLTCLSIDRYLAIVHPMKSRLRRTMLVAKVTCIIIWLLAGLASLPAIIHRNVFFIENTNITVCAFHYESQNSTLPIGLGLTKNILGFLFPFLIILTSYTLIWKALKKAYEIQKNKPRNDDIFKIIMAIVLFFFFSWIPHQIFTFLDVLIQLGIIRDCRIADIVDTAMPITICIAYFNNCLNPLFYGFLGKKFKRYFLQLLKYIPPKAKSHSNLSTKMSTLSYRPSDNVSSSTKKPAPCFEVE
Kind of assay: Inhibition of type 1 angiotensin 2 receptor at 1 nM.

Assay [16] deals with T4, Alpha-2C adrenergic receptor (Homo sapiens, UniProt P18825).
T4 sequence (P18825 whole entry): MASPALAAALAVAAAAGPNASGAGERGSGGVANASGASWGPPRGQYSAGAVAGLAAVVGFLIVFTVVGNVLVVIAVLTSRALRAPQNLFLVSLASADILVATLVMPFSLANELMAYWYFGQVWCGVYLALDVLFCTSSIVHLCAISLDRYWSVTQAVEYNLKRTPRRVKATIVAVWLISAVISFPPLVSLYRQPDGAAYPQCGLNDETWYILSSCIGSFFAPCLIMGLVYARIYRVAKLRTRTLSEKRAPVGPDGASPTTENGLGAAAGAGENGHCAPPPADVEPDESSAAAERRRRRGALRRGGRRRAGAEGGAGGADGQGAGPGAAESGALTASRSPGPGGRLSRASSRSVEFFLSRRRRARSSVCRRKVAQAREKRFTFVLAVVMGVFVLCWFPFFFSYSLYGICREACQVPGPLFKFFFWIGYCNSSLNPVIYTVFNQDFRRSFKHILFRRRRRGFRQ
Nature of the assay: Activity at adrenergic Alpha-2C receptor expressed in rat-mouse hybrid […] cell by adenylyl cyclase assay. Format: functional, cell-based.

Chain of Platelet-activating factor receptor (Homo sapiens) (P25105 whole entry): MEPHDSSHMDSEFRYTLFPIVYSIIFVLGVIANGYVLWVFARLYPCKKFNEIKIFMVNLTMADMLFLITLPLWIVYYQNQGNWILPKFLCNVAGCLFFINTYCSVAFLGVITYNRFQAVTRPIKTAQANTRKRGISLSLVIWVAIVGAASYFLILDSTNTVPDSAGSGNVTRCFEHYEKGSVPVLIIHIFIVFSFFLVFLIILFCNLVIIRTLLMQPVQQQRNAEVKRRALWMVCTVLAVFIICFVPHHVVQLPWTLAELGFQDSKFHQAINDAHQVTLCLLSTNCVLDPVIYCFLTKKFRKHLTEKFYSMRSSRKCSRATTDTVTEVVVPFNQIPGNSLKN
Chain of Leukotriene B4 receptor (Homo sapiens) (Q15722 whole entry, looked up): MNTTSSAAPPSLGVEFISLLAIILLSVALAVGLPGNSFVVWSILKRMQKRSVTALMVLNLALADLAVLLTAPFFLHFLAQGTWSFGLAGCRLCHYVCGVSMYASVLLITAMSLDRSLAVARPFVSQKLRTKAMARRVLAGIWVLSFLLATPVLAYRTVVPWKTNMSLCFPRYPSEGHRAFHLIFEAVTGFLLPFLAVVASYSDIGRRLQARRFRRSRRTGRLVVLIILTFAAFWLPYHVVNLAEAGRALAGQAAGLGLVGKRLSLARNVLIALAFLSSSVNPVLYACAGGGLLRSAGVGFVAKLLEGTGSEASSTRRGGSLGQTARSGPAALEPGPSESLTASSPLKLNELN
Chain of Leukotriene B4 receptor (Homo sapiens) (Q9NPC1 whole entry, looked up): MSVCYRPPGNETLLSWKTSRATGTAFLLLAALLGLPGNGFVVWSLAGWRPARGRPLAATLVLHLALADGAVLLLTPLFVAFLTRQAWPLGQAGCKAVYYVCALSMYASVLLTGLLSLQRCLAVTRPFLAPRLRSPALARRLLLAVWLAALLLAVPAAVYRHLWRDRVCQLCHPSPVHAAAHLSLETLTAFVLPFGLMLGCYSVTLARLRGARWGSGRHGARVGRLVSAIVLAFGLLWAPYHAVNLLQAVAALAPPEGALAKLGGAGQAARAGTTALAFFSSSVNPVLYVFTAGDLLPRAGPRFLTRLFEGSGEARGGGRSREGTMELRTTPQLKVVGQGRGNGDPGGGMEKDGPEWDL
Chain of 5-hydroxytryptamine receptor 2A (P14842 whole entry): as the sequence (P14842 whole entry) above

A word on the inhibition: it is the relative decrease from the control value, in per cent. The term Emax denotes the size of the effect at its maximum, as opposed to the concentration needed. By EC50 is commonly meant the concentration needed to bring the measured effect to its halfway point. Take `C[C@H](N)Cn1ncc2ccc(O)cc21`: the inhibition in assay [1] was 0.44%; in assay [2], -6.53%; in [3] it was -5.9%; in [4], 15.2%; in assay [5], -7.77%; in assay [6], -2.2%. For the same compound, the inhibition in assay [7] came out at 9.31%; in [11], 14.9%; in assay [12] it was 10.7%; in assay [13] it was 18.1%; in assay [14] it was 7.15%; in assay [15], 5.26%. Moreover, the Emax came to 89% in assay [8] and 81% in [10]. Also, the concentration giving a half-maximal response (EC50) in assay [9] was 0.0427 µM; in [16], 10 µM.

These data come from ChEMBL document CHEMBL1148572, “1-((S)-2-aminopropyl)-1H-indazol-6-ol: a potent peripherally acting 5-HT2 receptor agonist with ocular hypotensive activity” (J Med Chem, 2006).
